Assay results published in ChEMBL document CHEMBL1143949, “Antiproliferative effects of 6-anilino-5-chloro-1H-benzo[d]imidazole-4,7-dione in vascular smooth muscle cells” (Bioorg Med Chem, 2008).
pIC50: −log10 of the molar value. Active and inactive are the calls of the source. The rule behind the calls is not given here.

Assays:
[1] = Cell cycle arrest in rat smooth muscle cells assessed as accumulation at G2/M phase at 1 uM after 16 hrs; format: functional, cell-based
Rattus norvegicus [2] = organism: Rattus norvegicus; test: Inhibition of PDGF and FBS-induced migration of rat aortic smooth muscle cells by transwell plate assay; format: functional
HUVEC = test: Antiproliferative activity against HUVEC; format: functional, cell-based; settings: Homo sapiens
[3] = target: Mitogen-activated protein kinase 1 (Rattus norvegicus) (UniProt P63086); test: Activation of ERK2 phosphorylation in rat aortic smooth muscle cells at 1 uM
[4] = Cell cycle arrest in rat aortic smooth muscle cells assessed as accumulation at G1 phase at 1 uM after 16 hrs; format: functional
Rattus norvegicus [5] = organism: Rattus norvegicus; test: Induction of apoptosis in rat aortic smooth muscle cells assessed as caspase 3 activation at 1 uM; format: functional
[6] = Antiproliferative activity against rat aortic smooth muscle cells; format: functional
NIH3T3 = test: Antiproliferative activity against mouse NIH3T3 cells; format: functional, cell-based
[7] = target: Mitogen-activated protein kinase 3 (Rattus norvegicus) (UniProt P21708); test: Activation of ERK1 phosphorylation in rat aortic smooth muscle cells at 1 uM
[8] = target: MAP kinase p38 (Homo sapiens) (UniProt O15264+Q15759+Q16539+P53778); test: Activation of p38 phosphorylation in rat aortic smooth muscle cells at 1 uM
[9] = Cell cycle arrest in rat aortic smooth muscle cells assessed as accumulation at G2 phase at 1 uM after 16 hrs; format: functional
[10] = Cell cycle arrest in rat aortic smooth muscle cells assessed as accumulation at S phase at 1 uM after 16 hrs; format: functional
Rattus norvegicus [11] = organism: Rattus norvegicus; test: Effect on PDGF and serum-induced cyclin E expression in rat aortic smooth muscle cells at 1 uM; format: functional
[12] = Cell cycle arrest in rat aortic smooth muscle cells assessed as accumulation at G0/G1 phase at 1 uM after 16 hrs; format: functional

Sequence of Mitogen-activated protein kinase 1 (Rattus norvegicus) (P63086 whole entry): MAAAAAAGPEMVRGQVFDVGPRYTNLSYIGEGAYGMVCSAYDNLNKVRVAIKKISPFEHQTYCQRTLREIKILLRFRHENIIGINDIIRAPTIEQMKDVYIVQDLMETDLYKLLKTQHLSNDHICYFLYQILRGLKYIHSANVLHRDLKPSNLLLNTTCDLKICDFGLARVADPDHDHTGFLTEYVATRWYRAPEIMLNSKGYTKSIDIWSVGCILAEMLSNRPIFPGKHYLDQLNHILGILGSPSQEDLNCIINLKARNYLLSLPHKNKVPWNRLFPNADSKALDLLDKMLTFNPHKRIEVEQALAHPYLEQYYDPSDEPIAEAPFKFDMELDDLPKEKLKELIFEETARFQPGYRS
Sequence of Mitogen-activated protein kinase 3 (Rattus norvegicus) (P21708 whole entry): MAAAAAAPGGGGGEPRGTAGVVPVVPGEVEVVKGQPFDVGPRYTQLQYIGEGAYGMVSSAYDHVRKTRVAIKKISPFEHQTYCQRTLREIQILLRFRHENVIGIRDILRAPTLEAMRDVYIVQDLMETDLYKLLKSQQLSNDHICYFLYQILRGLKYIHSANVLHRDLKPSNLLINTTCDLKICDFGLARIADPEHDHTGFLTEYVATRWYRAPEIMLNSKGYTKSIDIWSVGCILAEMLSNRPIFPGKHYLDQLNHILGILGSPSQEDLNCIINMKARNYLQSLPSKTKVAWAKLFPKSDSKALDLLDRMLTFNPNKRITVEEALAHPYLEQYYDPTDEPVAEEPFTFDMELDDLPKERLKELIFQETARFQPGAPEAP

| SMILES | pIC50 (HUVEC) | pIC50 [6] | pIC50 (NIH3T3) | other results |
| --- | --- | --- | --- | --- |
| Cc1nc2c([nH]1)C(=O)/C(=N/c1ccccc1)C(Cl)=C2O | 5.92 | 6.10 | 5.28 | Activity [1]: 20.1%; Activity (Rattus norvegicus [2]): Active; Activity [3]: Active; Activity [4]: inactive; Activity (Rattus norvegicus [5]): Active; Activity [7]: Active; Activity [8]: Active; Activity [9]: inactive; Activity [10]: 23.3%; Activity (Rattus norvegicus [11]): inactive; Activity [12]: 56.4% |
| Cc1nc2c([nH]1)C(=O)/C(=N/c1ccc(Cl)cc1)C(Cl)=C2O | 6.10 | 5.55 | 5.89 | – |
| Cc1nc2c([nH]1)C(=O)/C(=N/c1ccc(C(F)(F)F)cc1)C(Cl)=C2O | 6.22 | 6.22 | 5.96 | – |
| Cc1nc2c([nH]1)C(=O)/C(=N/c1cccc(Br)c1)C(Cl)=C2O | 6.10 | 6.00 | 6.10 | – |
| Cc1nc2c([nH]1)C(=O)/C(=N/c1ccc(F)c(F)c1F)C(Cl)=C2O | 6.30 | 6.10 | 5.80 | – |
| Cc1nc2c([nH]1)C(=O)/C(=N/c1ccc(Cl)cc1Cl)C(Cl)=C2O | 6.30 | 6.10 | 5.92 | – |
| Cc1nc2c([nH]1)C(=O)/C(=N/c1cccc(Cl)c1)C(Cl)=C2O | 6.22 | 6.05 | 5.80 | – |
| Cc1nc2c([nH]1)C(=O)/C(=N/c1ccc(I)cc1)C(Cl)=C2O | 5.70 | 6.00 | 6.22 | – |
| Cc1ccc(NC2=C(Cl)C(=O)c3nc(C)[nH]c3C2=O)cc1 | 6.00 | 6.10 | 5.80 | – |
| Cc1nc2c([nH]1)C(=O)/C(=N/c1ccc(F)cc1)C(Cl)=C2O | 6.00 | 5.52 | 5.92 | – |
| Cc1nc2c([nH]1)C(=O)/C(=N/c1ccc(F)cc1F)C(Cl)=C2O | 6.00 | 5.92 | 6.10 | – |
| Cc1nc2c([nH]1)C(=O)/C(=N/c1cccc(Cl)c1Cl)C(Cl)=C2O | 6.52 | 6.22 | 5.64 | – |
